Results published in patent publication US11452737B2, “Compositions and methods for treating vascular malformation and related conditions” (priority 2015, dated 2022).
Values after ≈ are worked out from the molar mass of the structure shown. Read-outs that look alike come from different tables or passages of the source.

Columns and labels:
[1] = test system: HEK293T cells transiently transfected with empty, wildtype, R183Q, or Q209L constructs; assay: MTT assay dose response curve for puromycin, 24 well plate, transiently transfected cells; format: cell-based; details: Homo sapiens, HEK-293T, 72 h, puromycin 3 days, read-out: Half maximal inhibitory concentration (IC50), cell number
Experimental: FIG. 1 is a plot showing response of cells as a function of puromycin concentration. HEK293T cells were transiently transfected with empty, wildtype, R183Q, or Q209L constructs and then exposed to puromycin for 3 days before cell number was assessed by MTT assay in 24 well plate.
To determine whether mutations in GNAQ conferred increased sensitivity to puromycin, an MTT (3-(4,5-dimethylthiazol-2-yl)-2,5-diphenyltetrazolium bromide) assay dose response curve was done with HEK239 cells (including standard curve and normalization) after transient transfection. Puromycin exposure in HEK293 cells transiently transfected with R183Q or Q209L (no puromycin selection) over greater than a 100 fold dose range was then tested.
HEK 293 cells (5×10^5 cells/well) in 6 well-plates were transient transfected with 1 μg of construct (pcDNA3.1-GNAQ, pcDAN3.1-R183Q and pcDNA3.1-Q209L) per well. Twenty-four (24) hours later, the cells were digested, counted and aliquoted into 24 well plates (0.8×10^5 cells/well). After another 24 hours, the transfected cells were incubated with various concentrations of puromycin.
Three days later, the relative cell numbers were detected using MTT assay reagents (CellTiter 96® Aqueous One Solution Cell Proliferation Assay Reagents) as follows. After being thawed at room temperature, 40 μl the CellTiter 96® Aqueous One Solution Reagent was pipetted into each well of the 24-well assay plate containing the samples in 200 μl of culture medium. Then, the plates were incubated at 37° C. for 2 hours in a humidified, 5% CO2 atmosphere. The supernatants were transferred into 96-well plates. The absorbance at 490 nm of each sample was read by using a plate reader (SpectraMax M5). Optical density directly correlated with viable cell quantity.
A software program (GraphPad Prism) was used to generate Dose Response Curves. A non-linear regression was done to graph the Log [puromycin molar concentration] versus Maximal Inhibitory Response. The GraphPad program was used to calculate the IC50 of puromycin for each cell line (dose that gives a 50% maximal response) and the 95% confidence intervals. A 2-way ANOVA (Dose by Construct) was done to determine if there is a significant effect of construct upon puromycin effect with p-value of <0.05 used to determine significance.

[2] = test system: HEK293T cells transiently transfected with pcDNA3.1-E, pcDNA3.1-GNAQ, pcDNA3.1-R183Q, pcDNA3.1-Q209L; assay: Puromycin dose response curve, CellTiter 96 cell proliferation assay, 96-well plates; format: cell-based; details: Homo sapiens, HEK-293T, 72 h, 3 days, read-out: half maximal inhibitory concentration (IC50)
Experimental: FIG. 5 is a plot showing a dose response curve for puromycin. HEK 293T cells (5×10^5 cells/well in six-well plate) were transiently transfected with pcDNA3.1-E, pcDNA3.1-GNAQ, pcDNA3.1-R183Q, pcDNA3.1-Q209L. Twenty-four (24) hours later, the cells were digested, counted and aliquoted into 96-well plates. Twenty-four (24) hours later, the cells were incubated with a series of puromycin concentrations. Three days later, the relative cell numbers were detected using a cell proliferation assay.
A dose response curve (cell number in response to puromycin concentration) for HEK293T cells transiently transfected pcDNA3.1-E, pcDNA3.1-GNAQ, pcDNA3.1-R183Q and pcDNA3.1-Q209L and treated with puromycin is shown in FIG. 5. Cells expressing either the pcDNA3.1-R183Q or pcDNA3.1-Q209L plasmids were more sensitive to puromycin compared with cells transfected with the pcDNA3.1-E or pcDNA3.1-GNAQ plasmids.
HEK293T cells (5×10^5 cells/well) in 6 well-plates were transiently transfected with 1 μg (pcDNA3.1-E, pcDNA3.1-GNAQ, pcDAN3.1-R183Q and pcDNA3.1-Q209L) per well using FUGENE 6®. Twenty-four (24) hours later, the cells were digested, counted and aliquoted into 96-well plates (1×10^4 cells/well). After another 24 hours, the transfected cells were incubated with a 100-fold concentration series of puromycin. Three days later, the relative cell numbers were detected using CELLTITER 96® Aqueous One Solution Cell Proliferation Assay Reagents (Promega #G3582) as follows: After being thawed at room temperature, 10 μl of CELLTITER 96® Aqueous One Solution Reagent was pipet into each well of the 96-well assay plate containing the samples in 100 μl of culture medium. Then, the plates were incubated at 37° C. for 2 hours in a humidified, 5% CO2 atmosphere. The absorbance at 490 nm of each sample was read by using SpectraMAX M5. Readings were normalized to that in pcDNA3.1-GNAQ cells receiving vehicle. Results were analyzed in GraphPad. Experiment was done in quadruplicate samples.

[3] = test system: untransformed HMECs; assay: Puromycin dose response curve in untransformed HMECs; format: cell-based, human; details: 1 ug/ml puromycin, after 48 hours
[4] = test system: HEK293T cells with pcDNA3.1-E, -GNAQ, -R183Q or -Q209L plasmids; assay: RT-PCR gene expression with or without puromycin treatment; format: cell-based, human
Experimental: A panel of genes, important to the regulation of the pathways downstream of GNAQ, were evaluated by RT-PCR in mRNA samples gathered from cells with the pcDNA3.1-E, pcDNA3.1-GNAQ, pcDNA3.1-R183Q or pcDNA3.1-Q209L plasmids with or without puromycin treatment of 0.04 ug/ul (FIGS. 6A-6F, n=3 per group from 3 separate experiments).
HEK293T cells (5×10^5 cells/well) were transfected with 1 μg plasmid (pcDNA3.1-GNAQ, pcDAN3.1-R183Q or pcDNA3.1-Q209L) in 6-well plates. Twenty-four (24) hours later, cells were digested and re-plated into 6-well plates. Twenty-four (24) hours later, the plates were incubated in DMEM (10% FBS) with or without 0.04 μg/ml puromycin. Three days later, total RNA of treated HEK293T cells were isolated by using RNEASY® Mini Kit (QIAGEN) as follows. Media was aspirated, and the cells washed twice with PBS. 350 μl Buffer RLT with B-Mercaptoethanol was added to the each well. The lysate was pipetted into a microcentrifuge tube and pipetted to mix. 1 volume of 70% ethanol was added to the lysate. Lysate was transferred to an RNEASY® spin column placed in a 2 ml collection tube (supplied) and centrifuged. RNEASY® spin column was washed as per kit instructions. 50 μl RNase-free water was added directly to the center of the spin column membrane which was centrifuged for 1 min at 12,000 rpm to elute the RNA. Three separate experiments were performed to obtain triplicate mRNA and protein samples for analysis.
Reverse Transcription was carried out with the using the High Capacity cDNA Reverse Transcription Kits and based on Applied Biosystems' protocol. 2×RT master mix is prepared using the kit components before preparing the reaction plate and kit components allowed to thaw on ice. Referring to one reaction amount of components, the volume of components needed to prepare the required number of reactions was calculated. Then 10 μl of 2×RT master mixes was pipetted into each well of 500 μl PCR clean tubes. 10 μL of RNA sample (1 μg) was pipetted into each tube which is then mixed, centrifuged and then placed in a thermal cycler with the program of (10 min at 25° C., 120 min at 37° C., 5 min at 85° C., then 4° C.). After the thermal cycler, 1 μl RNase H was added into the tubes and incubated at 37° C. for 20 min. Finally, 600 μl Nuclease-free H2O was added into each tube.
The primers for Real-Time PCR were designed online with Primer-BLAST software tool. For each gene, at least three primers at different locations were designed based on the cDNA of the genes. The primer concentrations were normalized and were adjusted to 5 pmol/μ1. The real-time PCR reaction mixture of 20 μl included 10 μl SYBR Green Mix (2×), 2 μl primer pair mix, and 8 μl diluted cDNA solution. The Real-time PCR of loaded samples were run on CFX Connect™ real-time PCR system (Bio-rad) with extension steps of (50° C. 2 min 1 cycle, 95° C. 10 min 1 cycle, 95° C. 15 sec then 60° C. 1 min 40 cycles, 72° C. 10 min, 1 cycle) followed by a melting curve analysis (from 55° C. to 95° C. increments 0.05° C./Sec) to guarantee absence of nonspecific amplification. The primers with a unique peak in melting curve were chosen for next step. The primers were also only used for next experiments after they were confirmed by obtaining the same results from other primers for the same gene. With the final confirmed primers, the RNA levels in triplicate samples, obtained from three separate experiments, were measured.

[5] = test system: HEK293T cells with GNAQ constructs; assay: Western blot of protein levels after puromycin treatment; format: cell-based, human
Experimental: Treated cells were harvested with ice-cold radioimmunoprecipitation assay (RIPA) buffer (150 mM NaCl, 1.0% IGEPAL® CA-630, 0.5% sodium deoxycholate, 0.1% SDS, and 50 mM Tris, pH 8.0) (Sigma-Aldrich) plus phosphatase inhibitor cocktail (Cell signaling technology, #5870) and analyzed by western blot as follows: Quantitative protein samples were denatured in 4×LDS Sample buffer (Invitrogen) at 100° C. for 6 minutes. Samples were then subjected to SDS-PAGE by using Bio-Rad 4-15% gradient gels and transferred to PVDF membrane. The membranes were blocked with Li-cor ODYSSEY® Blocking buffer for 30 minutes at room temperature. Then the membranes were incubated with primary antibody (GaQ 1:125, Santa Cruz Biotechnology, sc-393; p-ERK 1:1000, Cell Signaling Technology, 4370; ERK 1:1000, Cell signaling Technology, 4696; HSP90 1:1000, Cell Signaling Technology, 4877) in a 1:1 solution of Li-cor ODYSSEY® blocking buffer and Tris-Buffered Saline and 0.1% Tween 20 (TBST) overnight at 4° C. The membranes were then washed three times for 10 min each in Tris-Buffered Saline and 0.1% Tween 20 (TBST) then probed with goat anti-mouse (IR-Dye 680RD) or goat anti Rabbit (IR-Dye-800CW) labeled secondary antibody in 1:1 Li-cor ODYSSEY® blocking buffer to TBST for 1 hour at room temperature. […] Bands were quantified using Image J software program.

[6] = all three constructs, puromycin alone, significant

COc1ccc(C[C@H](N)C(=O)N[C@H]2[C@@H](O)[C@H](n3cnc4c(N(C)C)ncnc43)O[C@@H]2CO)cc1 [puromycin]
IC50 ([1]; Q209L construct): 0.19 µM | IC50 ([1]; R183Q construct): 0.19 µM | IC50 ([1]; empty construct): 0.29 µM | IC50 ([1]; wildtype GNAQ construct): 0.29 µM | IC50 ([2]; HEK293T with pcDNA3.1-E (empty)): 0.084 µg/mL (≈ 0.178 µM) | IC50 ([2]; HEK293T with pcDNA3.1-GNAQ (wildtype)): 0.091 µg/mL (≈ 0.193 µM) | IC50 ([2]; HEK293T with pcDNA3.1-Q209L): 0.051 µg/mL (≈ 0.108 µM) | IC50 ([2]; HEK293T with pcDNA3.1-R183Q): 0.064 µg/mL (≈ 0.136 µM) | cells killed [3]: 100% | ID3 mRNA levels ([4]; R183Q and Q209L mutant cells, puromycin, compared to wildtype puromycin treated and vehicle treated mutant cells): upregulated | TRIO mRNA levels ([4]; all three constructs, puromycin alone, not significant): up-regulated | PRKCQ mRNA levels [4, 6]: up-regulated | TEAD3 mRNA levels [4, 6]: up-regulated | PIK3C2B mRNA levels ([4]; all three constructs, puromycin alone, significant only in Q209L cells): up-regulated | TSC22D3 mRNA levels ([4]; cells expressing R183Q or Q209L plasmids, puromycin 0.04 ug/ml): further decreased | ID3 mRNA levels ([4]; wildtype cells, puromycin 0.04 ug/ml, compared to vehicle treated): up-regulated | TSC22D3 mRNA expression ([4]; wildtype cells, puromycin 0.04 ug/ml, compared to vehicle treated wildtype): decreased | ID3 protein levels ([5]; puromycin treatment, pcDNA3.1-GNAQ, pcDNA3.1-R183Q or pcDNA3.1-Q209L cells): further increased | Gαq protein levels ([5]; puromycin versus vehicle treated cells): No significant differences
